For 16 molecules, EC50 results are on record in patent US8846739B2, “TGR5 agonists” (Exelixis Patent Company LLC, priority 2009, dated 2014).

Experiment [1] deals with T1, h-TGR5 (Homo sapiens, UniProt Q8TDU6).
T1 sequence (Q8TDU6 1-330): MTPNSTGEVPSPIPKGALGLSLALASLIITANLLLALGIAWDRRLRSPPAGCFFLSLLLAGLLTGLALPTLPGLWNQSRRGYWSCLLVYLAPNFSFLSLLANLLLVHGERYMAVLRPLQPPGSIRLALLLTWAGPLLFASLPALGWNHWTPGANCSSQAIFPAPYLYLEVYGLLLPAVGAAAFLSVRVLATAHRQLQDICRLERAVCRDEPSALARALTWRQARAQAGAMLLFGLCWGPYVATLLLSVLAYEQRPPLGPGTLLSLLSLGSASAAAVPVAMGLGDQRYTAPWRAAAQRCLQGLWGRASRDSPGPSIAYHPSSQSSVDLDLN
Nature of the experiment: TGR5 cAMP Assay using Cisbio cAMP Dynamic 2 htrf assay kit. The experiment is classed as cell-based. The note with it: hTGR5CRE-luc HEK 293 cells. As to the method: Compounds were diluted in DPBS with 5% DMSO (8-point serial dilution by half logs) in a 96-well plate and 1 μL was transferred to a 384-well assay plate in quadruplicate. The d2-cAMP and anti-cAMP Ab-cryptate stock solution were prepared as per the instructions in the Cisbio™ (Bedford, Mass.) kit. Cells (hTGR5CRE-luc HEK 293 and mTGR5CRE-luc HEK 293) were harvested using cell dissociation buffer and resuspended in DPBS. Cells were adjusted to 0.44×10^6 cells/ml followed by addition of IBMX to a final concentration of 0.5 mM. The cells were then mixed with d2-cAMP solution (7.1 mL cells+100 ul d2-cAMP) and 4000 cells (9 μL) were transferred to each well of the 384-well assay plate. Cells without d2-cAMP were added to eight wells as a negative control. The plate was covered and incubated at room temp for 30 min. Then 10 μL of Ab-cryptate solution was added to each well of the assay plate and incubated for 1 hr. The plate was read on an EnVision™ plate reader (Perkin-Elmer, Waltham, Mass.) and the DeltaF value was calculated as per the instructions in the Cisbio™ kit.
(§1) In the following tables, ECso values determined according to the TGR5 cAMP Assay are noted (cAMP); EC50 values determined according to the TGR5/CRE-Luciferiase Assay are noted (CRE-Luc).

Experiment [2] addresses T2, human TGR5 (h-TGR5) (Homo sapiens, UniProt Q8TDU6).
T2 sequence (Q8TDU6 1-330): T1 sequence (Q8TDU6 1-330)
Put plainly: TGR5/CRE-Luciferase Assay. The class given is cell-based. The note with it: HEK 293 hTGR5/CRE-Luc cells, 6 hours incubation, read-out: CRE-Luc Agonist (EC50). As to the method:
HEK 293 cells stably expressing human TGR5 (h-TGR5) or mouse TGR5 (m-TGR5) were generated from HEK 293 CRE-Luciferase cells. The day before the assay, HEK 293 hTGR5/CRE-Luc cells were plated in DMEM in a 384 well assay plate at a density of 25 k cells/45 μL per well and grown for 18-20 hours. Compounds were serially diluted in DMEM containing 5% DMSO and 5 µL of compound or media alone was transferred to each well and plates were incubated for 6 hours. Following incubation, 30 μL of lysis/luciferase buffer was added to each well. The luciferase activity was then measured on the EnVision™ plate reader and the dose response data was analyzed using ActivityBase.
as §1

For “2-({[3-chloro-5-fluoro-4-({[5-{1-[4-fluoro-3-(methyloxy)phenyl]-1-methylethyl}-1-(4-fluorophenyl)-1H-imidazol-2-yl]thio}methyl)phenyl]carbonyl}amino)-N,N,N-trimethylethanaminium [Example 1d]”, the EC50 in experiment [1] and in experiment [2] was below 100 nM each time.
As to `COc1cc(C(C)(C)c2cnc(SCc3c(F)cc(S(=O)(=O)NCCC[n+]4ccn(C)c4)cc3Cl)n2-c2ccc(F)cc2)ccc1F` [Compound 10, 3-(3-(3-chloro-5-fluoro-4-((5-(2-(4-fluoro-3-methoxyphenyl)propan-2-yl)-1-(4-fluorophenyl)-1H-imidazol-2-ylthio)methyl)phenylsulfonamido)propyl)-1-methyl-1H-imidazol-3-ium methanesulfonate], the EC50 in experiment [1] and in experiment [2] was below 100 nM in each case.
Turning to `COc1cc(C(C)(C)c2cnc(SCc3c(F)cc(S(=O)(=O)NCCc4ccc[n+](C)c4)cc3Cl)n2-c2ccc(F)cc2)ccc1F` [Compound 11, 3-(2-(3-chloro-5-fluoro-4-((5-(2-(4-fluoro-3-methoxyphenyl)propan-2-yl)-1-(4-fluorophenyl)-1H-imidazol-2-ylthio)methyl)phenylsulfonamido)ethyl)-1-methylpyridinium chloride], the EC50 in experiment [1] and in experiment [2] was below 100 nM throughout.
Take `COc1cc(C(C)(C)c2cnc(SCc3c(F)cc(S(=O)(=O)N[C@H]4CCC[N+](C)(C)C4)cc3Cl)n2-c2ccc(F)cc2)ccc1Cl` [Compound 11a, (3S)-3-({[3-chloro-4-({[5-{1-[4-chloro-3-(methyloxy)phenyl]-1-methylethyl}-1-(4-fluorophenyl)-1H-imidazol-2-yl]thio}methyl)-5-fluorophenyl]sulfonyl}amino)-1,1-dimethylpiperidinium]: the EC50 in experiment [1] and in experiment [2] was below 100 nM throughout.
With `COc1cc(C(C)(C)c2cnc(SCc3c(F)cc(S(=O)(=O)NC4CC[N+](C)(C)CC4)cc3F)n2-c2ccc(F)cc2)ccc1Cl` [Compound 11b, 4-({[4-({[5-{1-[4-chloro-3-(methyloxy)phenyl]-1-methylethyl}-1-(4-fluorophenyl)-1H-imidazol-2-yl]thio}methyl)-3,5-difluorophenyl]sulfonyl}amino)-1,1-dimethylpiperidinium], the EC50 in experiment [1] and in experiment [2] was below 100 nM each time.
With `COc1cc(C(C)(C)c2cnc(SCc3c(F)cc(S(=O)(=O)N4CCC([N+](C)(C)C)CC4)cc3F)n2-c2ccc(F)cc2)ccc1Cl` [Compound 11c, 1-{[4-({[5-{1-[4-chloro-3-(methyloxy)phenyl]-1-methylethyl}-1-(4-fluorophenyl)-1H-imidazol-2-yl]thio}methyl)-3,5-difluorophenyl]sulfonyl}-N,N,N-trimethylpiperidin-4-aminium], the EC50 in experiment [1] and in experiment [2] was below 100 nM in each case.
Regarding `COc1cc(C(C)(C)c2cnc(SCc3c(F)cc(S(=O)(=O)N[C@@H]4CCC[N+](C)(C)C4)cc3F)n2-c2ccc(F)cc2)ccc1Cl` [Compound 11d, (3R)-3-({[4-({[5-{1-[4-chloro-3-(methyloxy)phenyl]-1-methylethyl}-1-(4-fluorophenyl)-1H-imidazol-2-yl]thio}methyl)-3,5-difluorophenyl]sulfonyl}amino)-1,1-dimethylpiperidinium], the half-maximal effective concentration (EC50) in experiment [1] and in experiment [2] was below 100 nM each time.
For the molecule `COc1cc(C(C)(C)c2cnc(SCc3c(F)cc(S(=O)(=O)N[C@H]4CCC[N+](C)(C)C4)cc3F)n2-c2ccc(F)cc2)ccc1Cl` [Compound 11e, (3S)-3-({[4-({[5-{1-[4-chloro-3-(methyloxy)phenyl]-1-methylethyl}-1-(4-fluorophenyl)-1H-imidazol-2-yl]thio}methyl)-3,5-difluorophenyl]sulfonyl}amino)-1,1-dimethylpiperidinium], the 50% effective concentration (EC50) in experiment [1] and in experiment [2] was below 100 nM throughout.
As to `COc1cc(C(C)(C)c2cnc(SCc3c(F)cc(S(=O)(=O)N4CCC([N+](C)(C)C)CC4)cc3Cl)n2-c2ccc(F)cc2)ccc1Cl` [Compound 11f, 1-{[3-chloro-4-({[5-{1-[4-chloro-3-(methyloxy)phenyl]-1-methylethyl}-1-(4-fluorophenyl)-1H-imidazol-2-yl]thio}methyl)-5-fluorophenyl]sulfonyl}-N,N,N-trimethylpiperidin-4-aminium], the EC50 in experiment [1] and in experiment [2] was below 100 nM in each case.
For the molecule `COc1cc(C(C)(C)c2cnc(SCc3c(F)cc(S(=O)(=O)N4CCC[C@@H]([N+](C)(C)C)C4)cc3Cl)n2-c2ccc(F)cc2)ccc1Cl` [Compound 11g, (3R)-1-{[3-chloro-4-({[5-{1-[4-chloro-3-(methyloxy)phenyl]-1-methylethyl}-1-(4-fluorophenyl)-1H-imidazol-2-yl]thio}methyl)-5-fluorophenyl]sulfonyl}-N,N,N-trimethylpiperidin-3-aminium], the EC50 in experiment [1] and in experiment [2] was below 100 nM each time.
`COc1cc(C(C)(C)c2cnc(SCc3c(F)cc(S(=O)(=O)N4CCC[C@H]([N+](C)(C)C)C4)cc3Cl)n2-c2ccc(F)cc2)ccc1Cl` [Compound 11h, (3S)-1-{[3-chloro-4-({[5-{1-[4-chloro-3-(methyloxy)phenyl]-1-methylethyl}-1-(4-fluorophenyl)-1H-imidazol-2-yl]thio}methyl)-5-fluorophenyl]sulfonyl}-N,N,N-trimethylpiperidin-3-aminium]: the EC50 in experiment [1] and in experiment [2] was below 100 nM in each case.
As to `COc1cc(C(C)(C)c2cnc(SCc3c(F)cc(S(=O)(=O)N4CC[C@@H]([N+](C)(C)C)C4)cc3Cl)n2-c2ccc(F)cc2)ccc1Cl` [Compound 11i, (3R)-1-{[3-chloro-4-({[5-{1-[4-chloro-3-(methyloxy)phenyl]-1-methylethyl}-1-(4-fluorophenyl)-1H-imidazol-2-yl]thio}methyl)-5-fluorophenyl]sulfonyl}-N,N,N-trimethylpyrrolidin-3-aminium], the concentration giving a half-maximal response (EC50) in experiment [1] and in experiment [2] was below 100 nM each time.
Turning to `CC[N+](C)(C)C1CCN(S(=O)(=O)c2cc(F)c(CSc3ncc(C(C)(C)c4ccc(Cl)c(OC)c4)n3-c3ccc(F)cc3)c(Cl)c2)CC1` [Compound 11j, 1-{[3-chloro-4-({[5-{1-[4-chloro-3-(methyloxy)phenyl]-1-methylethyl}-1-(4-fluorophenyl)-1H-imidazol-2-yl]thio}methyl)-5-fluorophenyl)sulfonyl}-N-ethyl-N,N-dimethylpiperidin-4-aminium], the EC50 in experiment [1] and in experiment [2] was below 100 nM throughout.
With `COc1cc(C(C)(C)c2cnc(SCc3c(F)cc(S(=O)(=O)N4CC[N+](C)(C)CC4)cc3Cl)n2-c2ccc(F)cc2)ccc1Cl` [Compound 11k, 4-{[3-chloro-4-({[5-{1-[4-chloro-3-(methyloxy)phenyl]-1-methylethyl}-1-(4-fluorophenyl)-1H-imidazol-2-yl]thio}methyl)-5-fluorophenyl]sulfonyl}-1,1-dimethylpiperazin-1-ium], the EC50 in experiment [1] and in experiment [2] was below 100 nM throughout.
As for `COc1cc(C(C)(C)c2cnc(SCc3c(F)cc(S(=O)(=O)N4CC[C@H]([N+](C)(C)C)C4)cc3Cl)n2-c2ccc(F)cc2)ccc1Cl` [Compound 11l, (3S)-1-{[3-chloro-4-({[5-{1-[4-chloro-3-(methyloxy)phenyl]-1-methylethyl}-1-(4-fluorophenyl)-1H-imidazol-2-yl]thio}methyl)-5-fluorophenyl]sulfonyl}-N,N,N-trimethylpyrrolidin-3-aminium], the EC50 in experiment [1] and in experiment [2] was below 100 nM throughout.
In the case of `CC[N+](C)(C)CCCN(C)S(=O)(=O)c1cc(F)c(CSc2ncc(C(C)(C)c3ccc(Cl)c(OC)c3)n2-c2ccc(F)cc2)c(Cl)c1` [Compound 11m, 3-[{[3-chloro-4-({[5-{1-[4-chloro-3-(methyloxy)phenyl]-1-methylethyl}-1-(4-fluorophenyl)-1H-imidazol-2-yl]thio}methyl)-5-fluorophenyl)sulfonyl}(methyl)amino]-N-ethyl-N,N-dimethylpropan-1-aminium], the EC50 in experiment [1] and in experiment [2] was below 100 nM throughout.

Usually EC50 stands for the concentration that produces a half-maximal response.
